Laboratory results taken from US20220288069A1, “INHIBITORS OF TYROSINE KINASE” (BridGene Biosciences, Inc., priority 2019, published 2022).

Tests used:
THP−1 = assay: Cell viability assay (CellTiter-Glo), THP-1; type: cell-based; conditions: THP-1 cells, 72 hr; for GI50: Homo sapiens
Experimental: (§1) Cell viability assay was performed based on the following brief procedures. Cells were plated at the density of 5K/well with volume of […] in 96-well white plate and clear bottom plates. 20 μL of veh. or compound was added at proper concentration to the well. The final volume is 200 μL, with final conc. of DMSO32 0.1%, 11 points, triplicates. The cells were then treated at 37° C. in the TC incubator for 72 hr. Equal volume (200 μL) of CellTiter-Glo reagent (Promega) was added to the well and protect from light at room temperature for 15 min. The chemiluminicent was measured with EnSight (Perkin Elmer). GraphPad Prism non-linear regression, Log[inhibitor] response with four parameters were used to calculate GI50.

FLT3 = biological target: T1, FLT3 (Homo sapiens, UniProt P36888); assay: Caliper mobility shift kinase inhibition assay, FLT3; type: biochemical; conditions: recombinant kinase; enzyme 0.1 nM, ATP 95 μM, incubation 3 hr
T1 construct: purchased ThermoFisher PV3182
T1 sequence (P36888 27-993): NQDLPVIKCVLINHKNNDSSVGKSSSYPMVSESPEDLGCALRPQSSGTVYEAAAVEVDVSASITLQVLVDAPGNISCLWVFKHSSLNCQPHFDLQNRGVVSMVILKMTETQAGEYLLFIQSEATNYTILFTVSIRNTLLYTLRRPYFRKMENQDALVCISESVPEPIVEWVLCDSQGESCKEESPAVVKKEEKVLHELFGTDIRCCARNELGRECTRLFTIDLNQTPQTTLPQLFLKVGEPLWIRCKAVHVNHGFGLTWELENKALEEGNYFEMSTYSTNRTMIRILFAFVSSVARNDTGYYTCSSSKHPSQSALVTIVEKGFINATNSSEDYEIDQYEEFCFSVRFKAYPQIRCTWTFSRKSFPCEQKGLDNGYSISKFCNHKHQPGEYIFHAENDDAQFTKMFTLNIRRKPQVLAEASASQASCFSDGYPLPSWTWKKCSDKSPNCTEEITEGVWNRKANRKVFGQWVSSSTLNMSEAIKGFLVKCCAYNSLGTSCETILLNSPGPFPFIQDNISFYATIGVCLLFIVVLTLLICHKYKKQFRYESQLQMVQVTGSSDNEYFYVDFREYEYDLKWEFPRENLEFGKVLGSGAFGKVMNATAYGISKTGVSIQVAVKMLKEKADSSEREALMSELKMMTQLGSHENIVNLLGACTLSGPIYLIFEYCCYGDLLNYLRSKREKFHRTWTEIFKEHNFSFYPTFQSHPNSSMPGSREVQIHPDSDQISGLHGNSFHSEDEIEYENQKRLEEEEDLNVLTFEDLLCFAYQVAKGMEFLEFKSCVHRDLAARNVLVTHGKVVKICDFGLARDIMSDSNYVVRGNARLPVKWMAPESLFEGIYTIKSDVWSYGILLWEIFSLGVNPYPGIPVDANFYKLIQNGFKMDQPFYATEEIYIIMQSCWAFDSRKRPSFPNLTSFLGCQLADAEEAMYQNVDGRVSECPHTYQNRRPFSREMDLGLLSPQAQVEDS
Experimental: Compounds' inhibition of recombinant kinases (FGR, FLT3, FMS, KIT, or RON) was measured using Caliper mobility shift assay, which is based on the difference in capillary electrophoresis mobility of a fluorescent-tagged peptide as a result of a phosphorylation by the kinase under study. Reactions were started by the addition of various concentrations of a compound (originally in DMSO solution) to a kinase solution in assay buffer followed by addition of a mixture of ATP and a fluorescent-tagged peptide substrate in assay buffer. Concentrations of the enzyme, ATP and the peptide were pre-optimized so that 15% substrate conversion to ensure initial velocity measurements. After incubation for 3 hours at room temperature, the kinase reaction was quenched by the addition of a concentrated EDTA solution before analysis on a LabChip EZ Reader II to yield percentage inhibition by comparing to the DMSO control.
Table 2 below summarizes the assay conditions for the characterization of the kinase inhibition properties of the disclosed compounds.

MV4−11 = assay: Cell viability assay (CellTiter-Glo), MV4-11; type: cell-based; conditions: Homo sapiens, MV4-11 cells, 72 hr
Experimental: as §1

Kasumi−1 = assay: Cell viability assay (CellTiter-Glo), Kasumi-1; type: cell-based; conditions: Homo sapiens, Kasumi-1 cells, 72 hr
Experimental: as §1

Cc1c(/C=C2\C(=O)Nc3ccc(F)cc32)[nH]c2c1CC[C@H](CNC(=O)[C@H](C)N(C)C(=O)/C=C/CN(C)C)C2 [Compound 29, (E)-4-(dimethylamino)-N-[(1S)-2-[[(6S)-2-[(Z)-(5-fluoro-2-oxo-indolin-3-ylidene)methyl]-3-methyl-4,5,6,7-tetrahydro-1H-indol-6-yl]methylamino]-1-methyl-2-oxo-ethyl]-N-methyl-but-2-enamide]
GI50 (THP−1): ≥ 1 µM | IC50 (FLT3): < 0.01 µM | GI50 (MV4−11): < 0.01 µM

Cc1c(/C=C2\C(=O)Nc3ccc(F)cc32)[nH]c2c1CC[C@@H](CNC(=O)[C@H](C)N(C)C(=O)/C=C/CN(C)C)C2 [Compound 30, (E)-4-(dimethylamino)-N-[(1S)-2-[[(6R)-2-[(Z)-(5-fluoro-2-oxo-indolin-3-ylidene)methyl]-3-methyl-4,5,6,7-tetrahydro-1H-indol-6-yl]methylamino]-1-methyl-2-oxo-ethyl]-N-methyl-but-2-enamide]
GI50 (THP−1): ≥ 1 µM | IC50 (FLT3): < 0.01 µM | GI50 (MV4−11): < 0.01 µM

Cc1cc(Nc2cc(NCCNC(=O)[C@@H]3COCCN3C(=O)/C=C/CN(C)C)nc(Nc3ccc(CC#N)cc3)n2)n[nH]1 [Compound 2]
GI50 (THP−1): ≥ 1 µM | GI50 (Kasumi−1): 0.1 to 1 µM | IC50 (FLT3): < 0.01 µM | GI50 (MV4−11): 0.01 to 0.1 µM

C/C=C/C(=O)N(C)[C@@H](C)C(=O)NCCOc1cc(Nc2ncc(-c3ccccc3)s2)nc(C)n1 [Compound 16, N-methyl-N-[(1S)-1-methyl-2-[2-[2-methyl-6-[(5-phenylthiazol-2-yl)amino]pyrimidin-4-yl]oxyethylamino]-2-oxoethyl]but-2-enamide]
IC50 (FLT3): 0.01 to 0.1 µM

C=CC(=O)N(C)[C@@H](C)C(=O)NCCNC(=O)c1c[nH]c(/C=C2\C(=O)Nc3ccc(F)cc32)c1C [Compound 23, 5-[(5-fluoro-2-oxo-indolin-3-ylidene)methyl]-4-methyl-N-[2-[[(2S)-2-[methyl(prop-2-enoyl)amino]propanoyl]amino]ethyl]-1H-pyrrole-3-carboxamide]
GI50 (THP−1): ≥ 1 µM | IC50 (FLT3): < 0.01 µM | GI50 (MV4−11): < 0.01 µM

C=CC(=O)N1CCN(C)C[C@H]1C(=O)NCCOc1cc(Nc2ncc(-c3ccccc3)s2)nc(C)n1 [Compound 15, (2S)-4-methyl-N-[2-[2-methyl-6-[(5-phenylthiazol-2-yl)amino]pyrimidin-4-yl]oxyethyl]-1-prop-2-enoyl-piperazine-2-carboxamide]
IC50 (FLT3): < 0.01 µM

C=CC(=O)N(C)[C@@H](C)C(=O)NCCNc1cc(Nc2ncc(C3CCC3)s2)nc(CC)n1 [Compound 6, (2S)—N-[2-[[6-[(5-cyclobutylthiazol-2-yl)amino]-2-ethyl-pyrimidin-4-yl]amino]ethyl]-2-[methyl(prop-2-enoyl)amino]propanamide]
GI50 (THP−1): 0.01 to 0.1 µM | GI50 (Kasumi−1): < 0.01 µM | IC50 (FLT3): < 0.01 µM | GI50 (MV4−11): < 0.01 µM

C=CC(=O)N(C)[C@@H](C)C(=O)NC[C@H]1CCc2c([nH]c(/C=C3\C(=O)Nc4ccc(F)cc43)c2C)C1 [Compound 27, (2S)—N-[[(6S)-2-[(5-fluoro-2-oxo-indolin-3-ylidene)methyl]-3-methyl-4,5,6,7-tetrahydro-1H-indol-6-yl]methyl]-2-[methyl(prop-2-enoyl)amino]propanamide]
GI50 (THP−1): ≥ 1 µM | IC50 (FLT3): < 0.01 µM | GI50 (MV4−11): < 0.01 µM

C=CC(=O)N(C)[C@@H](C)C(=O)NC[C@@H]1CCc2c([nH]c(/C=C3\C(=O)Nc4ccc(F)cc43)c2C)C1 [Compound 28, (2S)—N-[[(6R)-2-[(5-fluoro-2-oxo-indolin-3-ylidene)methyl]-3-methyl-4,5,6,7-tetrahydro-1H-indol-6-yl]methyl]-2-[methyl(prop-2-enoyl)amino]propanamide]
GI50 (THP−1): ≥ 1 µM | IC50 (FLT3): < 0.01 µM | GI50 (MV4−11): < 0.01 µM

C=CC(=O)N1CCC[C@H]1C(=O)N[C@H]1CCN(c2cc(Nc3ncc(-c4ccncc4)s3)nc(C)n2)C1 [Compound 21, (2S)—N-[(3S)-1-[2-methyl-6-[[5-(4-pyridyl)thiazol-2-yl]amino]pyrimidin-4-yl]pyrrolidin-3-yl]-1-prop-2-enoyl-pyrrolidine-2-carboxamide]
IC50 (FLT3): < 0.01 µM

CCC(=O)N(C)[C@@H](C)C(=O)NCCNC(=O)c1c[nH]c(/C=C2\C(=O)Nc3ccc(F)cc32)c1C [Compound 24, 5-[(5-fluoro-2-oxo-indolin-3-ylidene)methyl]-4-methyl-N-[2-[[(2S)-2-[methyl(propanoyl)amino]propanoyl]amino]ethyl]-1H-pyrrole-3-carboxamide]
THP−1 GI50 (THP−1): = | IC50 (FLT3): 0.01 to 0.1 µM | GI50 (MV4−11): 0.01 to 0.1 µM

C=CC(=O)N(C)[C@@H](C)C(=O)NCCN(C)c1cc(Nc2ncc(-c3ccncc3)s2)nc(C)n1 [Compound 19, (2S)—N-[2-[methyl-[2-methyl-6-[[5-(4-pyridyl)thiazol-2-yl]amino]pyrimidin-4-yl]amino]ethyl]-2-[methyl(prop-2-enoyl)amino]propanamide]
IC50 (FLT3): < 0.01 µM

C=CC(=O)N(C)[C@@H](C)C(=O)N[C@H]1CCN(c2cc(Nc3ncc(-c4ccncc4)s3)nc(C)n2)C1 [Compound 20, (2S)-2-[methyl(prop-2-enoyl)amino]-N-[(3S)-1-[2-methyl-6-[[5-(4-pyridyl)thiazol-2-yl]amino]pyrimidin-4-yl]pyrrolidin-3-yl]propanamide]
IC50 (FLT3): < 0.01 µM

CCc1nc(NCCNC(=O)[C@H](C)N(C)C(=O)/C=C/CN(C)C)cc(Nc2ncc(C3CCC3)s2)n1 [Compound 8, (E)-N-[(1S)-2-[2-[[6-[(5-cyclobutylthiazol-2-yl)amino]-2-ethyl-pyrimidin-4-yl]amino]ethylamino]-1-methyl-2-oxo-ethyl]-4-(dimethylamino)-N-methyl-but-2-enamide]
GI50 (THP−1): ≥ 1 µM | GI50 (Kasumi−1): 0.1 to 1 µM | IC50 (FLT3): < 0.01 µM | GI50 (MV4−11): < 0.01 µM

CC#CC(=O)N(C)[C@@H](C)C(=O)NCCNC(=O)c1c[nH]c(/C=C2\C(=O)Nc3ccc(F)cc32)c1C [Compound 25, N-[2-[[(2S)-2-[but-2-ynoyl(methyl)amino]propanoyl]amino]ethyl]-5-[(5-fluoro-2-oxo-indolin-3-ylidene)methyl]-4-methyl-1H-pyrrole-3-carboxamide]
GI50 (THP−1): ≥ 1 µM | IC50 (FLT3): < 0.01 µM | GI50 (MV4−11): < 0.01 µM

C=CC(=O)N1CCOC[C@H]1C(=O)NCCOc1cc(Nc2ncc(-c3ccccc3)s2)nc(C)n1 [Compound 14, (3S)—N-[2-[2-methyl-6-[(5-phenylthiazol-2-yl)amino]pyrimidin-4-yl]oxyethyl]-4-prop-2-enoyl-morpholine-3-carboxamide]
IC50 (FLT3): < 0.01 µM

C=CC(=O)N(C)[C@@H](C)C(=O)NCCOc1cc(Nc2ncc(C3CCC3)s2)nc(CC)n1 [Compound 7, (2S)—N-[2-[6-[(5-cyclobutylthiazol-2-yl)amino]-2-ethyl-pyrimidin-4-yl]oxyethyl]-2-[methyl(prop-2-enoyl)amino]propanamide]
GI50 (THP−1): 0.1 to 1 µM | GI50 (Kasumi−1): < 0.01 µM | IC50 (FLT3): < 0.01 µM | GI50 (MV4−11): < 0.01 µM

Cc1nc(NCCNC(=O)[C@H](C)N(C)C(=O)/C=C/CN(C)C)cc(Nc2ncc(-c3ccccc3)s2)n1 [Compound 11]
GI50 (THP−1): ≥ 1 µM | GI50 (Kasumi−1): < 0.01 µM | IC50 (FLT3): < 0.01 µM | GI50 (MV4−11): < 0.01 µM

C=CC(=O)N1CCC[C@H]1C(=O)NCCNc1cc(Nc2ncc(-c3ccncc3)s2)nc(C)n1 [Compound 22, (2S)—N-[2-[[2-methyl-6-[[5-(4-pyridyl)thiazol-2-yl]amino]pyrimidin-4-yl]amino]ethyl]-1-prop-2-enoyl-pyrrolidine-2-carboxamide]
IC50 (FLT3): < 0.01 µM
